In US8324279B2, “Compositions and methods for inhibiting an isoform of human manganese superoxide dismutase” (MitoTek, LLC, priority 2003, dated 2012):
“Also recorded” adds a separate entry of the source.

Tests used:
[1] = tested on: adult cardiomyocyte explants; assay: Doxorubicin induction of isoMnSOD expression in adult heart explants (Western Blot); assay type: cell-based, rat; conditions: 3 days, 0.1 nM to 1.0 μM Doxorubicin, AdvDMEM 2% FBS, FIG. 3
Source text: Adult cardiomyocytes were isolated and purified following the combination of perfusion techniques (Borg et al. Recognition of extracellular matrix components by neonatal and adult cardiac myocytes. Dev Biol. 1984; 104:86-96) and an attachment procedure (Bugaisky L B, Zak R. Differentiation of adult rat cardiac myocytes in cell culture. Circ Res. 1989; 64:493-500) as described by Sil et al. (Sil et al. Myotrophin in human cardiomyopathic heart. Circ Res. 1993; 73:98-108). Briefly, after rats (5 weeks old) were killed by decapitation, the hearts were aseptically excised and residual blood was removed. The heart was perfused in Joklik's medium (containing Joklik's minimal essential medium, 25 mmol/L glutamic acid, 30 mmol/L taurine, and 1 mmol/L adenosine) without recirculation on a modified Langendorff apparatus for approximately 10 minutes at 37° C. The perfusion was then continued for 30 minutes at the same temperature, with recirculation in Joklik's medium containing collagenase type II (100 U/mL). After perfusion, the ventricles were cut into small pieces and tritulated in 0.05% Trypsin/EDTA for 10 min. Cardiac explants were cultured overnight on laminin-coated (20 μg per well) 35-mm six-well plates in medium 199 containing 5% FBS, 5 mM creatine, 2 mM L-carnitine, and 5 mM taurine. […]

[2] = tested on: altMnSODreport; assay: Testing of drugs for toxicity with the reporter gene system; assay type: cell-based; conditions: cells comprising the reporter gene system
Experimental: Drugs are tested alone or in combination in cancerous or diseased cells and in healthy cells. The compounds are added to cells comprising the reporter gene system. The induction of the reporter is characterized in the absence and the presence of the drug(s).
Breast cancer cell line, MDA-MB-435, Her-2/neu over-expressing (ATCC), fibroblast cells lines NIH3T3 and B104, which are NIH3T3 cells transfected with the rat ErbB2/Her2 oncogene, and normal primary cells (Clonetics; rat cardiomyocytes, donated by Kathryn Maschhoff, MD PhD, Neonatology, University of Pennsylvania) are treated with doxorubicin alone and in combination with the rat ErbB2/Her2 17.6.4 monoclonal antibody, which downregulates the human and rat Her2 receptor (Zhang et al., 1999)(Oncogene), and Herceptin™ (Genentech). It is also determined if the Her2 mAbs induces isoMnSOD expression in untransfected cells and cells transfected with altMnSODreport. A dose-response curve is established, using western immunoblot analysis of the isoMnSOD protein and the expression of the reporter construct. A similar analysis is performed for doxorubicin treatment of cells. Both treatments are analyzed for their effects on mtDNA stability by Southern hybridization analysis, induction of lipid peroxidation by immunodetection of HNE-modified proteins, and induction of apoptosis by activation of caspases 9 and 3.

[3] = tested on: isoMnSOD; assay: Peroxidative assay of native mitochondrial extracts from compound-treated pancreatic explants (ROS-activity blot); assay type: cell-based, pig; conditions: pancreatic explant cultured 1 hr at 37° C. with equal volume of 2 μM compound; FIG. 1
Experimental: Recombinant and mammalian detergent extracts of native mitochondrial proteins were separated in a 7% PAGE gel without SDS containing 375 mM Tris pH 8.2 at 100 volts for 1.5 hr. After electrotransfer of proteins to nitrocellulose using transfer buffer without SDS, peroxidative activity was measured directly upon the filter by their incubation with 0.5 ml of the Femtomole luminol solution (Pierce) containing 1 mM H2O2 and exposing to x-ray film or other means of detecting chemiluminescence.
F10 medium was used throughout the procedure. Pancreas (8 grams) from a 3 kilo pig was minced, washed twice, and 1 g of tissue was resuspended in 5 ml of FIO medium. […] Explants were stored frozen at −70° C. Tissue was homogenized in Buffer A at 4° C. and mitochondria was isolated by differential centrifugation and stored frozen at −70° C. Peroxidative assay of native mitochondrial extracts analyzed by the ROS-activity blot.

[4] = tested on: isoMnSOD; assay: Pro-oxidant activity of isoMnSOD, at least one of the assays provided in the Examples; conditions: according to at least one of the assays provided in the Examples
Experimental: (§1) Each test compound was prepared by mixing 5 μL of a 1 mM test compound stock solution in ethanol with 5 μL of 0.1 M KOH, followed by the addition of 5 ml of TBS for a final concentration of 1 μM test compound. Equal amounts of native protein extracts from pancreatic mitochondria (obtained according to the protocol of Example 5) were loaded in separate wells and resolved in a 7% PAGE gel without SDS, electrotransferred to PVDF and divided into strips. Each PVDF strip was incubated with 1 μM of test compound in TBS for 30 minutes, washed twice in TBS for 20 minutes, and the peroxidative activity of isoMnSOD was measured by incubation of each strip with 1 mM H2O2 in 0.4 ml of the luminol solution contained within the Femtomole chemiluminescence assay kit (Pierce) and exposed to x-ray film (FIG. 4).
Peroxidative assay of native mitochondrial extracts analyzed by the ROS-activity blot.

[5] = target: T1, isoMnSOD (Homo sapiens, UniProt P04179); assay: Detection of inhibitors bound to isoMnSOD (immunoprecipitation/western blot); conditions: anti-dopamine or anti-serotonin antibody; FIG. 2A and 2B
T1 sequence (P04179 25-183 isoform P04179-2 limits assumed): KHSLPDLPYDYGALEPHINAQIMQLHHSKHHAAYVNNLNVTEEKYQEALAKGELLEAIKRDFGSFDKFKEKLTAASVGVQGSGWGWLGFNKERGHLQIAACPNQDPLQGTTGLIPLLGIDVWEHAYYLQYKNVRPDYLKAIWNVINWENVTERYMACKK
Experimental: Covalent modification of the MnSOD-Exon3-deleted isoform was measured by a combined immuneprecipitation/western blot analysis. Immunoblots for detecting AA-DA, EPA-DA, DHA-DA, C18:4(ω-3)-DA adducts were performed using anti-dopamine rabbit polyclonal (Chemicon) and anti-serotonin goat polyclonal antibodies (ImmunoStar), respectively. After immunoprecipitating using an antibody against the inhibitor, isoMnSOD was detected as described above.

[6] = tested on: isoMnSOD; assay: Drug inhibition method: peroxidative activity of isoMnSOD on PVDF strips (ROS-activity blot); conditions: 1 μM test compound for 30 minutes; 1 mM H2O2, luminol chemiluminescence; FIG. 4
Experimental: as §1
All procedures were carried out at 4° C.

Molecule | isoMnSOD expression [1] | expression of altMnSOD report [2] | mitochondrial peroxidase activity [3] | pro-oxidant activity of isoMnSOD [4] | binding to isoMnSOD (covalent modification of the MnSOD-Exon3-deleted isoform) [5] | peroxidative activity of isoMnSOD [6]
COc1cccc2c1C(=O)c1c(O)c3c(c(O)c1C2=O)C[C@@](O)(C(=O)CO)C[C@@H]3O[C@H]1C[C@H](N)[C@H](O)[C@H](C)O1 [Doxorubicin] | induced isoMnSOD expression; also recorded: induces the expression of isoMnSOD | causes an increase in expression of altMnSOD report |  |  |  | 
CCCCC/C=C\C/C=C\C/C=C\C/C=C\CCCC(=O)NCCc1c[nH]c2ccc(O)cc12 [arachidonoyl-serotonin, arachidonoyl serotonin] |  |  | inhibited the mitochondiral peroxidase activity | found to inhibit pro-oxidant activity of isoMnSOD | able to bind to isoMnSOD | 
CC/C=C\C/C=C\C/C=C\C/C=C\C/C=C\C/C=C\CCC(=O)NCCc1ccc(O)c(O)c1 [docosahexaenoyl (DHA)-dopamine, docosahexaenoyl dopamine] |  |  | inhibited the mitochondiral peroxidase activity | found to inhibit pro-oxidant activity of isoMnSOD | able to bind to isoMnSOD | inhibit peroxidative activity more significantly than the other compounds
CC/C=C\C/C=C\C/C=C\C/C=C\C/C=C\CCCC(=O)NCCc1ccc(O)c(O)c1 [eicosapentaenoyl (EPA)-dopamine, eicosapentaenoyl dopamine] |  |  | did not inhibit peroxidase activity to the same effect | found to inhibit pro-oxidant activity of isoMnSOD |  | inhibit peroxidative activity more significantly than the other compounds
C18:4(ω-3)-dopamine |  |  | inhibited the mitochondiral peroxidase activity | found to inhibit pro-oxidant activity of isoMnSOD | able to bind to isoMnSOD | inhibit peroxidative activity more significantly than the other compounds
